Assay results as given in patent US9403800B2, “Compounds for inhibition of cancer cell proliferation” (ChemRegen, Inc., priority 2012, dated 2016).
pEC50: −log10 of the molar value.

Tests used:
[1] = tested on: HEK-293T cells; experiment: Alamar Blue resazurin-based cell viability assay, HEK-293T; settings: Homo sapiens, read-out: decrease of cell viability, EC50
[2] = tested on: SW480 colorectal cancer model cell line; experiment: SW480 cell proliferation and cell cycle (InCell 1000); assay type: cell-based, human
Description: Previous studies have shown that the Wnt signaling pathway drives cellular proliferation of a number of cancers through up-regulation of genes for several proteins crucial for cell division including Cyclin D1, c-Myc, etc. and treatment of cancer cells with 1 or analogs decreases cellular proliferation. Accordingly, we examined the effect of 1 and analogs on cell proliferation of human cancer cell lines. […] The results were confirmed by studying the effects of 1 on SW480 human colon cell cycle determined by cell images captured by InCell 1000.

[3] = tested on: NF-B signaling pathway; experiment: NF-B signaling pathway transcriptional activity (selectivity); assay type: cell-based
[4] = tested on: HEK-293T cells; experiment: cytotoxicity by leakage of G6PDH, HEK-293T; assay type: cell-based
[5] = tested on: canonical Wnt target genes, Cyclin D1 (CCND1), Axin2 (AXIN2), and c-Myc (c-MYC); experiment: mRNA levels of canonical Wnt target genes in HEK293T and SW480 cells; assay type: cell-based; settings: HEK293T and SW480 colorectal cells
[6] = tested on: HCT-116 xenograft colon tumors; experiment: HCT-116 xenograft colon tumors in nu/nu mice; assay type: in vivo
Procedure: Based on the inhibition of cancer cell proliferation by the disclosed compounds the disclosed compounds likely will inhibit cancer cell migration. […] Following establishment of HCT-116 tumors, daily doses of either Compound 15 or vehicle were administered by i.p. injection at 20 mg/kg for 28 days. […] The weight of the excised HCT-116 tumors was 77% lower for the Compound 15-treated mice relative to the vehicle control on Day 28 of the experiment. […] Following establishment of PC-3 tumors, daily doses of either Compounds 1, 15 or vehicle were administered by i.p. injection at 30 mg/kg for 19 days. […] The weight of the excised PC-3 tumors was 66% for compound 15-treated mice compared to vehicle-treated controls on Day 19 of the experiment.

| SMILES | pEC50 [1] | Ki67 protein levels ([2]; SW480 cells) | cell cycle distribution ([2]; SW480 cells, InCell 1000 images) | cancer cell proliferation (in words) ([2]; SW480 colon cancer cell line) | transcriptional activity of the NF-B signaling pathway [3] | cytotoxicity (leakage of G6PDH) [4] | mRNA levels of canonical Wnt target genes CCND1, AXIN2, c-MYC [5] | weight of the excised HCT-116 tumors, lower relative to the vehicle control ([6]; i.p. 20 mg/kg daily, Day 28) [%] | growth of HCT-116 colon tumors ([6]; nu/nu mice, i.p. 20 mg/kg daily for 28 days) |
| --- | --- | --- | --- | --- | --- | --- | --- | --- | --- |
| O=C1CCCN1c1ccc(S(=O)(=O)N2CCCc3ccccc32)cc1 [Compound 1, 1-(4-(3,4-dihydroquinolin-1(2H)-ylsulfonyl)phenyl)pyrrolidin-2-one] | ~7.60 | elevated | significantly more cells in G2 and less in G1/S phases | significantly inhibited cancer cell proliferation | did not alter the transcriptional activity | not cytotoxic | decrease in mRNA levels |  |  |
| CN1CCN(S(=O)(=O)c2ccc(N3CCCC3=O)cc2)c2ccccc21 [Compound 15, 1-(4-(4-methyl-3,4-dihydroquinoxalin-1(2H)-ylsulfonyl)phenyl)pyrrolidin-2-one] |  |  |  |  |  |  |  | 77 | decreased the growth of HCT-116 colon tumors |
